The subject of one data set is K562. Briefly: Anticancer activity (cytotoxicity) in CML cell line. Format: cell-based.
The next data set addresses T1, ABCG2 (MDCKII–ABCG2) (Homo sapiens, UniProt Q9UNQ0).
T1 construct: expressed in transfected cells; host or cells: MDCKII-ABCG2
Briefly: Bidirectional drug transport assay. It counts as in vitro ADME. The note with it: 10 μM, mean of three experiments.

Data set [1] is described as follows: Drug accumulation in organs of BALB/c mice. Format: in vivo. The note with it: intravenous 12.5 mg/kg, 30 min.
Data set [2] addresses T2, ABL1(T315I)-phosphorylated (Homo sapiens, UniProt P00519, T315I). The note with it: 10 μM.
Another data set has as its target ABL1-phosphorylated (Homo sapiens, UniProt P00519). The note with it: 10 μM.
For the next data set, the target named is T3, ABCG2 (Homo sapiens, UniProt Q9UNQ0).
T3 construct: expressed in transfected cells; host or cells: MDCKII-ABCG2
T3 sequence (Q9UNQ0 whole entry, species assumed): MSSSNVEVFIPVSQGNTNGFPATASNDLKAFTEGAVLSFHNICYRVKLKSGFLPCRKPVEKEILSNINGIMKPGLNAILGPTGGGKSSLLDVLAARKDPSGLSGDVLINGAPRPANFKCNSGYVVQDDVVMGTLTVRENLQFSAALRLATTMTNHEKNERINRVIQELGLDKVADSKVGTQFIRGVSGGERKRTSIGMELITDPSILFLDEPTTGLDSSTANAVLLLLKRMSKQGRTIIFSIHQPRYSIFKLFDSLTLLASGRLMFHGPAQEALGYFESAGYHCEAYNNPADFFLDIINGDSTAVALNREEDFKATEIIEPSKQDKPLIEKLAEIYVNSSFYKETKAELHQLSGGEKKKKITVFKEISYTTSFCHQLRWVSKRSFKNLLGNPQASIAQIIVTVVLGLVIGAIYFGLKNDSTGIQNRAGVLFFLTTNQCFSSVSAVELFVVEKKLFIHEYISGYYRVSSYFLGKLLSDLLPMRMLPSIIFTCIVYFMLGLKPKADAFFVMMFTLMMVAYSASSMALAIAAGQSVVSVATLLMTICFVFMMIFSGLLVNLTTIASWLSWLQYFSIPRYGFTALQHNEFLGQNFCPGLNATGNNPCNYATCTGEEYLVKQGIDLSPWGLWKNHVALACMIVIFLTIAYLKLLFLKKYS
Put plainly: Bidirectional drug transport assay. It counts as in vitro ADME. The note with it: dog, pH 7.4, MDCKII–ABCG2, mean of three experiments.

The target of data set [3] is ABL1(E255K)-phosphorylated (Homo sapiens, UniProt P00519, E255K). Briefly: biochemical. The note with it: read-out: Percent control.
Data set [4] deals with ABL1(M351T)-phosphorylated (Homo sapiens, UniProt P00519, M351T). Put plainly: biochemical. The note with it: read-out: Percent control.
Data set [5] deals with T2, ABL1(T315I)-phosphorylated. Put plainly: biochemical. The note with it: read-out: Percent control.
In the next data set the target is FGFR3 (Homo sapiens, UniProt P22607). Put plainly: biochemical. The note with it: read-out: Percent control.
FGFR3, sequence (P22607 23-806): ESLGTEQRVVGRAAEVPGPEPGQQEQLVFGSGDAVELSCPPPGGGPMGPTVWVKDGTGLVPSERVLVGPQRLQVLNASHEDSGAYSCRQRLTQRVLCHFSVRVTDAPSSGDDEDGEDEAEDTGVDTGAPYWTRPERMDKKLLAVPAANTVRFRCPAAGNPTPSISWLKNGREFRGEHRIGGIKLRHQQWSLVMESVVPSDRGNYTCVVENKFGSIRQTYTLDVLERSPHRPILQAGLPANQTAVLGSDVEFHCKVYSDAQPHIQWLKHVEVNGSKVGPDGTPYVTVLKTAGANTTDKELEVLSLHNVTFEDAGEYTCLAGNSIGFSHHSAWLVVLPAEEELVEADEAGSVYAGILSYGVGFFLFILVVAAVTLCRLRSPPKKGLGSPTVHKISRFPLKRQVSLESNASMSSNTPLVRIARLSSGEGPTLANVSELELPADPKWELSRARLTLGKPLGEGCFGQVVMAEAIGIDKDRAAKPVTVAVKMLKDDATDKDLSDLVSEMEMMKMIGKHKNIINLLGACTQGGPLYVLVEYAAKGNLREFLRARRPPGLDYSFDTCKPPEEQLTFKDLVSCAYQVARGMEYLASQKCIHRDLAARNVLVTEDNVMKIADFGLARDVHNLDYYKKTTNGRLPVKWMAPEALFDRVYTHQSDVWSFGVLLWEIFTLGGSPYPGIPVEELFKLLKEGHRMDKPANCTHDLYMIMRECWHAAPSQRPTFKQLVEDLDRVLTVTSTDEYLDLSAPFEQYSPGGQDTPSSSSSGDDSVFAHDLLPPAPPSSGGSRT
Another data set concerns the target T4, FLT3(N841I) (Homo sapiens, UniProt P36888, N841I).
T4 sequence (P36888 27-993 N841I): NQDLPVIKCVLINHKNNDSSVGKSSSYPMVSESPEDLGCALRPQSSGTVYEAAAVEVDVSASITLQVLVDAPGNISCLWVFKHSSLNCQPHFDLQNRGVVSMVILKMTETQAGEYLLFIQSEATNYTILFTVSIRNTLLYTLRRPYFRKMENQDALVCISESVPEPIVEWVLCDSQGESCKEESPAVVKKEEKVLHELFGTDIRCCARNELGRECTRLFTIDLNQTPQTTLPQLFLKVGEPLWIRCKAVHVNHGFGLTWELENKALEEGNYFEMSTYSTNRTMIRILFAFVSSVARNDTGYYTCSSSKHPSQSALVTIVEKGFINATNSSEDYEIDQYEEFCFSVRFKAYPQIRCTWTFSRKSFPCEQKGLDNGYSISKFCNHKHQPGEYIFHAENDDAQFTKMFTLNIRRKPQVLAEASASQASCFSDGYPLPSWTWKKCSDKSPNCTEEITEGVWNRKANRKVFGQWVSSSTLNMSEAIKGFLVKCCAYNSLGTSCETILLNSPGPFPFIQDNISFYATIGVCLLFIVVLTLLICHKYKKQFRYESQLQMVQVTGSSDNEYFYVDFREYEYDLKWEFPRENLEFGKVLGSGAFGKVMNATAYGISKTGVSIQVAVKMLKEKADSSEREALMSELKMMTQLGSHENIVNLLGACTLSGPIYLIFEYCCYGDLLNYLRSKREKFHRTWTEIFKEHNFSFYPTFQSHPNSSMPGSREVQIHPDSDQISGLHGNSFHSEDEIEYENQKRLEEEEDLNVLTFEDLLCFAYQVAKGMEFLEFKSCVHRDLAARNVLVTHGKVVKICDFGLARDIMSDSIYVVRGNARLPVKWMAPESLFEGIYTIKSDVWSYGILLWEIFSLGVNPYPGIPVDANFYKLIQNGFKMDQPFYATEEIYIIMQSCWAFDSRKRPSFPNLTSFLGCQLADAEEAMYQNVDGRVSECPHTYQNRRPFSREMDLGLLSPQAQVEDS
Briefly: biochemical. The note with it: read-out: Percent control.

Another data set addresses T5, FLT3(R834Q) (Homo sapiens, UniProt P36888, R834Q).
T5 sequence (P36888 27-993 R834Q): T4 sequence (P36888 27-993 N841I) with R808Q, I815N
Briefly: biochemical. The note with it: read-out: Percent control.

Another data set has as its target EGFR(L858R) (Homo sapiens, UniProt P00533, L858R). Briefly: biochemical. The note with it: read-out: Percent control.
Another data set deals with HCC827. Briefly: Anticancer activity (cytotoxicity) in NSCLC cell line. It counts as cell-based. The note with it: Homo sapiens, HCC827, EGFR ΔE746-A750 (sensitizing).

Numbering of substitutions follows the chain as printed. Like-named read-outs stand apart in the source and are kept apart here.

T1 sequence (Q9UNQ0 whole entry, species assumed): as the sequence (Q9UNQ0 whole entry, species assumed) above
EGFR(L858R), sequence (P00533 25-1210 L858R): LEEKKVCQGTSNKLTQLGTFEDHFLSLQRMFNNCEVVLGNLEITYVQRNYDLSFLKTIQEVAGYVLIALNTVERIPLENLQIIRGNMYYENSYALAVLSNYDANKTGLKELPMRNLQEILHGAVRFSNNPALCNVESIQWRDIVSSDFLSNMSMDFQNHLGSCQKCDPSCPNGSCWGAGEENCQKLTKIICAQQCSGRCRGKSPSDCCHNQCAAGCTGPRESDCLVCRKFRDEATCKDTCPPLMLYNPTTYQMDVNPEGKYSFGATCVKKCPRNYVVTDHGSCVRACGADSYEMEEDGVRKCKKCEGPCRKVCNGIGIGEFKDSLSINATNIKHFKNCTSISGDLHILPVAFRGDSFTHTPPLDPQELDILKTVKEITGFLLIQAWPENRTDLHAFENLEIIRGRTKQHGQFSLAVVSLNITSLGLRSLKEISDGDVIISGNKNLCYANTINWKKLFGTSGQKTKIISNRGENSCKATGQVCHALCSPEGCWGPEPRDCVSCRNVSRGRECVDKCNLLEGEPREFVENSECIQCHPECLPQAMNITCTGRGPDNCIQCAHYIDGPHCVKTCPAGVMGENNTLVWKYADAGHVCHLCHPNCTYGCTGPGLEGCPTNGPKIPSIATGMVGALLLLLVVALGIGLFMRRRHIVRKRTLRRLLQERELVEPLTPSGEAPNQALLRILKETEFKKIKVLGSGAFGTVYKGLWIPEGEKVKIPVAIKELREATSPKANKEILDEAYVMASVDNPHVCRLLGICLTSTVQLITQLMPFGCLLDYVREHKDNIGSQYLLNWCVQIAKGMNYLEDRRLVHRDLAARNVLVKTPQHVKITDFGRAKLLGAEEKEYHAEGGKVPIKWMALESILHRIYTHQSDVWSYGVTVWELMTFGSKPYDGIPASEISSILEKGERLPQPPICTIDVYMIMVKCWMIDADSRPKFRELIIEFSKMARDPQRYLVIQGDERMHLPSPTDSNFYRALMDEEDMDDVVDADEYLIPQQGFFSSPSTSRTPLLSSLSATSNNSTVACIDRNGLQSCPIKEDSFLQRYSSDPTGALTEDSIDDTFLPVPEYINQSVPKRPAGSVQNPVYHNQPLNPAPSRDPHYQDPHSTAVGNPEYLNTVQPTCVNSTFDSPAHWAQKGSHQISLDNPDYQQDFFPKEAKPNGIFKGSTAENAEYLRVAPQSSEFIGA

With `Cc1ccc(NC(=O)c2ccc(CN3CCN(C)CC3)cc2)cc1Nc1nccc(-c2cccnc2)[n+]1[Pt-2]1([Cl])[NH2+]C2CCCCC2[NH2+]1` (stereo not drawn) [1b, oxaliplatin-imatinib], the half-maximal inhibitory concentration (IC50) in the data set with K562 (CML cell line, Bcr-Abl positive, Table 1, read-out: Anticancer activity (IC50) K562) amounted to 2.27 ± 0.33 µM; in the data set on K562 (Table 2, read-out: Anticancer activity (IC50) K562 Sensitive parental), 2.27 ± 0.33 µM.

As to `C#Cc1cccc(Nc2c3cc(OCCOC)c(OCCOC)cc3nc[n+]2[Pt@SP2-2]([NH3+])([NH3+])[Cl])c1` [2a, cisplatin-erlotinib], at ABCG2 (MDCKII–ABCG2), the “A to B transport (apparent permeability)” value is 7.21 × 10^−6 and the “B to A transport (apparent permeability)” value was 7.88 × 10^−6. Also, in [1], the “brain accumulation, times higher than that of cisplatin” value was 7 times and the “brain accumulation, times higher than that of erlotinib” value is given as over 3 times. In data set [2], this compound gave a Percent control of 30%. Moreover, the Percent control on ABL1-phosphorylated was 16%.

For `C#Cc1cccc(Nc2ncnc3cc(OCCOC)c(OCCOC)cc23)c1` [Erlotinib], the Papp A→B at 120 min, 10 μM at ABCG2 (read-out: A to B transport (apparent permeability)) is 14.9 ×10⁻⁶ cm/s. For the same compound, on ABCG2 (read-out: B to A transport (apparent permeability)), the Papp B→A at 120 min, 10 μM amounted to 45.4 ×10⁻⁶ cm/s. In addition, the remaining activity at 10 µM amounted to 0.6% in [3]; 0.7% in [4]; 0.6% in data set [5]; 100% on FGFR3; 4.8% at FLT3(N841I); 100% on FLT3(R834Q).

With `Cc1ccc(NC(=O)c2ccc(CN3CCN(C)CC3)cc2)cc1Nc1nccc(-c2cccnc2)n1` [Imatinib, reference compound], the remaining activity at 10 µM on EGFR(L858R) came to 100%.

Regarding `COc1cc2c(Nc3ccc(Br)cc3F)ncnc2cc1OCC1CCN(C)CC1` [Vandetanib, reference compound], the half-maximal inhibitory concentration (IC50) in the data set on HCC827 was 0.011 ± 0.002 µM.

Values taken from PMC4858680, “A platinum-based hybrid drug design approach to circumvent acquired resistance to molecular targeted tyrosine kinase inhibitors” (Scientific Reports, 2016).
